Test results taken from ChEMBL document CHEMBL1154308, “Carteriosulfonic acids A-C, GSK-3beta inhibitors from a Carteriospongia sp” (J Nat Prod, 2009).
Calls of active or inactive are those of the source. The calls are words filed in the database; no cut-off is given here.

Assays:
Oryctolagus cuniculus = species on record: Oryctolagus cuniculus; experiment: Inhibition of rabbit GSKbeta assessed as [32P]-phosphorylation of substrate up to 50 uM after 1 hr by scintillation counting
[1] = Inhibition of rabbit GSKbeta assessed as [32P]-phosphorylation of substrate after 1 hr by scintillation counting; parameters: species or system Oryctolagus cuniculus

inhibition (Oryctolagus cuniculus) | IC50 [1] [µM] | SMILES
inactive | – | CC(O)C[C@H](O)[C@H](O)C[C@H](O)CCC(=O)NCCS(=O)(=O)O (some centres undefined)
– | 12.5 | CCCCC/C=C/C(O)CCCCC/C=C/C(O)CCCCCCCC(=O)OC(C)C[C@H](O)[C@H](O)C[C@H](O)CCC(=O)NCCS(=O)(=O)O (mixture of isomers) [CARTERIOSULFONIC ACID A]
– | 6.8 | CCCCC/C=C/C(O)CCCCCCCCCCCCCC(=O)OC(C)C[C@H](O)[C@H](O)C[C@H](O)CCC(=O)NCCS(=O)(=O)O (mixture of isomers) [CARTERIOSULFONIC ACID C]
– | 6.8 | CCCCC/C=C/C(O)CCCCC/C=C/C(CCCCCCCC(=O)OC(C)C[C@H](O)[C@H](O)C[C@H](O)CCC(=O)NCCS(=O)(=O)O)OC(C)=O (some centres undefined) [CARTERIOSULFONIC ACID B]
